This note sets out measurements from ChEMBL document CHEMBL1130384, “Address and message sequences for the nociceptin receptor: a structure-activity study of nociceptin-(1-13)-peptide amide” (J Med Chem, 1997).

The species named for assay [1] is Mus musculus. In words: Tested for apparent affinity on electrically stimulated mouse vas deferens. Type of assay: functional, organism-based.
The species named for assay [2] is Mus musculus. The assay is described as follows: Tested for maximal effect induced by agonist. Type of assay: functional.
Assay [3] is filed under the species Mus musculus. In words: Tested for apparent affinity on electrically stimulated mouse vas deferens at 10 uM; Inactive. In kind it is functional, organism-based.
Assay [4] is filed under the species Mus musculus. In words: Tested for maximal effect induced by agonist at 10 uM; Inactive. Type of assay: functional, organism-based.
The species named for assay [5] is Mus musculus. The assay is described as follows: Tested for antagonistic properties by using NC(1-13)-NH2; In active at 10 uM. In kind it is functional, organism-based.
The species named for assay [6] is Mus musculus. The assay is described as follows: Tested for maximal effect induced by agonist at 10 uM; Slight effect was detected. In kind it is functional, organism-based.
The species entered for assay [7] is Mus musculus. The assay is described as follows: Tested for apparent affinity on electrically stimulated mouse vas deferens at 10 uM; Slight effect was detected. Type of assay: functional, organism-based.
The species entered for assay [8] is Mus musculus. In words: Tested for antagonistic properties by using NC(1-13)-NH2 as agonist; Inactive at 10 uM. In kind it is functional, organism-based.
The species entered for assay [9] is Mus musculus. The assay is described as follows: Tested for maximal effect induced by agonist at 10 uM; In active. In kind it is functional, organism-based.
The species named for assay [10] is Mus musculus. In words: Tested for apparent affinity on electrically stimulated mouse vas deferens at 10 uM; In active. In kind it is functional, organism-based.

Activity calls are given as the source filed them. The rule behind the calls is not given here. Residues, ends and D or L forms follow the SMILES beside them.

For `C[C@H](NC(=O)CNC(=O)[C@@H](NC(=O)[C@H](Cc1ccccc1)NC(=O)CNC(=O)CNC(=O)[C@@H](N)Cc1ccccc1)[C@@H](C)O)C(=O)N[C@@H](CCCNC(=N)N)C(=O)N[C@@H](CCCCN)C(=O)N[C@@H](CO)C(=O)N[C@@H](C)C(=O)N[C@@H](CCCNC(=N)N)C(=O)N[C@@H](CCCCN)C(N)=O`, the EC50 – broadly, the concentration needed to bring the measured effect to its halfway point – in the assay filed under Mus musculus [1] is 17.8 nM. Also, the Emax (commonly the greatest response seen or fitted, relative to the assay's reference) in the assay listed under Mus musculus [2] was -84%.

On to `C[C@H](NC(=O)CNC(=O)[C@@H](NC(=O)[C@H](Cc1ccccc1)NC(=O)CNC(=O)CNC(=O)[C@@H](N)Cc1ccccc1)[C@@H](C)O)C(=O)N[C@@H](CCCN=C(N)N)C(=O)N[C@@H](CCCCN)C(=O)N[C@@H](CO)C(=O)N[C@@H](C)C(=O)N[C@@H](CCCN=C(N)N)C(=O)N[C@@H](CCCCN)C(=O)O`, for which the EC50 in the assay listed under Mus musculus [1] was 2240 nM. Further, in the assay listed under Mus musculus [2], the Emax is -73%.

Consider `CC(=O)N[C@@H](Cc1ccccc1)C(=O)NCC(=O)NCC(=O)N[C@@H](Cc1ccccc1)C(=O)N[C@H](C(=O)NCC(=O)N[C@@H](C)C(=O)N[C@@H](CCCN=C(N)N)C(=O)N[C@@H](CCCCN)C(=O)N[C@@H](CO)C(=O)N[C@@H](C)C(=O)N[C@@H](CCCN=C(N)N)C(=O)N[C@@H](CCCCN)C(N)=O)[C@@H](C)O`, for which the EC50 in the assay filed under Mus musculus [1] is 1510 nM. For the same molecule, the Emax in the assay filed under Mus musculus [2] was -79%.

Take `C=CCN(CC=C)[C@@H](Cc1ccccc1)C(=O)NCC(=O)NCC(=O)N[C@@H](Cc1ccccc1)C(=O)N[C@H](C(=O)NCC(=O)N[C@@H](C)C(=O)N[C@@H](CCCN=C(N)N)C(=O)N[C@@H](CCCCN)C(=O)N[C@@H](CO)C(=O)N[C@@H](C)C(=O)N[C@@H](CCCN=C(N)N)C(=O)N[C@@H](CCCCN)C(N)=O)[C@@H](C)O`: in the assay listed under Mus musculus [3], the “Log EC50” value is “inactive”. Moreover, in the assay listed under Mus musculus [4], the Emax entry was “inactive”. For the same molecule, the result in the assay filed under Mus musculus [5] was inactive.

Consider `C[C@H](NC(=O)CNC(=O)[C@@H](NC(=O)[C@@H](Cc1ccccc1)NC(=O)CNC(=O)CNC(=O)[C@@H](N)Cc1ccccc1)[C@@H](C)O)C(=O)N[C@@H](CCCN=C(N)N)C(=O)N[C@@H](CCCCN)C(=O)N[C@@H](CO)C(=O)N[C@@H](C)C(=O)N[C@@H](CCCN=C(N)N)C(=O)N[C@@H](CCCCN)C(N)=O`, for which the Emax entry in the assay filed under Mus musculus [6] was “crc incom”. In addition, the outcome in the assay filed under Mus musculus [5] was inactive. Further, the “Log EC50” value in the assay listed under Mus musculus [7] is “crc incom”.

As to `C[C@H](NC(=O)CNC(=O)[C@@H](NC(=O)[C@H](Cc1ccccc1)NC(=O)CNC(=O)CNC(=O)[C@@H](N)Cc1ccccc1)[C@@H](C)O)C(=O)N[C@@H](CCCN=C(N)N)C(=O)N[C@@H](CCCCN)C(=O)N[C@@H](CO)C(=O)N[C@@H](C)C(=O)N[C@@H](CCCN=C(N)N)C(=O)O`, in the assay filed under Mus musculus [3], the “Log EC50” value is “inactive”. For the same molecule, in the assay listed under Mus musculus [4], the Emax result is “inactive”. Also, the result in the assay listed under Mus musculus [5] was inactive.

For the molecule `C[C@H](NC(=O)CNC(=O)[C@@H](NC(=O)[C@H](Cc1ccccc1)NC(=O)CNC(=O)CNC(=O)[C@H](N)Cc1ccccc1)[C@@H](C)O)C(=O)N[C@@H](CCCN=C(N)N)C(=O)N[C@@H](CCCCN)C(=O)N[C@@H](CO)C(=O)N[C@@H](C)C(=O)N[C@@H](CCCN=C(N)N)C(=O)N[C@@H](CCCCN)C(N)=O`, the Emax result in the assay listed under Mus musculus [6] is reported as “crc incom”. The outcome in the assay listed under Mus musculus [5] was inactive. Moreover, the “Log EC50” value in the assay filed under Mus musculus [7] is given as “crc incom”.

As for `NC(=O)[C@H](Cc1ccccc1)NC(=O)CNC(=O)CNC(=O)[C@@H](N)Cc1ccccc1` (H-FGGF-NH2), the result in the assay filed under Mus musculus [8] was inactive. The “Log EC50” value in the assay filed under Mus musculus [3] was “inactive”. Further, the Emax entry in the assay listed under Mus musculus [4] is “inactive”.

`CC(C)C[C@H](NC(=O)[C@H](CCCCN)NC(=O)[C@H](CCCNC(=N)N)NC(=O)[C@H](C)NC(=O)[C@H](CO)NC(=O)[C@H](CCCCN)NC(=O)[C@H](CCCNC(=N)N)NC(=O)[C@H](C)NC(=O)CNC(=O)[C@@H](NC(=O)[C@H](Cc1ccccc1)NC(=O)CNC(=O)CNC(=O)[C@@H](N)Cc1ccccc1)[C@@H](C)O)C(=O)N[C@@H](C)C(=O)N[C@@H](CC(N)=O)C(=O)N[C@@H](CCC(N)=O)C(=O)O` [NOCICEPTIN]: in the assay listed under Mus musculus [1], the EC50 is 14.5 nM. For the same molecule, the Emax in the assay filed under Mus musculus [2] was -83%.

Take H-FAAFTGARKSARK-NH2: the Emax entry in the assay filed under Mus musculus [9] was “inactive”. The “Log EC50” value in the assay listed under Mus musculus [3] is “inactive”. Also, the outcome in the assay filed under Mus musculus [5] was inactive.

As to H-FGFTGARKSARK-NH2, the Emax entry in the assay filed under Mus musculus [9] was “inactive”. For the same molecule, the “Log EC50” value in the assay listed under Mus musculus [10] was “inactive”. For the same molecule, the outcome in the assay listed under Mus musculus [5] was inactive.

For the molecule H-FGGFT-NH2, the “Log EC50” value in the assay filed under Mus musculus [3] was “inactive”. The Emax result in the assay listed under Mus musculus [4] is “inactive”. Also, the outcome in the assay filed under Mus musculus [5] was inactive.

On to H-FGGFTGAAASARK-NH2, for which the Emax result in the assay filed under Mus musculus [6] is “crc incom”. In the assay filed under Mus musculus [5], the outcome was inactive. The “Log EC50” value in the assay filed under Mus musculus [7] is “crc incom”.

Take H-FGGFTGARK-NH2: the “Log EC50” value in the assay listed under Mus musculus [3] was “inactive”. Further, the Emax result in the assay listed under Mus musculus [4] is “inactive”. In addition, the result in the assay filed under Mus musculus [5] was inactive.

For the molecule H-FGGFTGARKSA-NH2, the Emax result in the assay listed under Mus musculus [6] is on record as “crc incom”. In addition, the result in the assay listed under Mus musculus [5] was inactive. Moreover, the “Log EC50” value in the assay filed under Mus musculus [7] is “crc incom”.

For the molecule H-FGGFTGARKSAR-NH2, the concentration giving a half-maximal response (EC50) in the assay listed under Mus musculus [1] was 871 nM. Moreover, the Emax in the assay filed under Mus musculus [2] is -79%.

As for H-FGGLTGARKSARK-NH2, the “Log EC50” value in the assay listed under Mus musculus [3] is “inactive”. Moreover, the Emax entry in the assay filed under Mus musculus [4] was “inactive”. For the same molecule, the result in the assay listed under Mus musculus [5] was inactive.

For H-LGGFTGARKSARK-NH2, in the assay filed under Mus musculus [1], the EC50 was 28.2 nM. Further, the Emax in the assay listed under Mus musculus [2] was -80%.
